# Measurements reported in patent US7435837B2, “Dihydrobenzofuranyl alkanamine derivatives and methods for using same” (Wyeth, priority 2003, dated 2008).
# Like-named read-outs stand apart in the source and are kept apart here.
# Assays:
# human 5-HT2C receptor = target: T1, human 5-HT2C receptor (Homo sapiens, UniProt P28335); experiment: 5-HT2C receptor-stimulated calcium mobilization (FLIPR) in CHO cells; type: cell-based; settings: for Emax: CHO; for EC50: calcium mobilization, CHO cells stably expressing human 5-HT2C, read-out: 5-HT2C Function EC50;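 on all read-outs here: Fluo-3-AM fluorescence read on FLIPR every 1 s, agonist added after 10 baseline reads, response taken as peak minus lowest raw fluorescence count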
# T1 sequence (P28335 33-458): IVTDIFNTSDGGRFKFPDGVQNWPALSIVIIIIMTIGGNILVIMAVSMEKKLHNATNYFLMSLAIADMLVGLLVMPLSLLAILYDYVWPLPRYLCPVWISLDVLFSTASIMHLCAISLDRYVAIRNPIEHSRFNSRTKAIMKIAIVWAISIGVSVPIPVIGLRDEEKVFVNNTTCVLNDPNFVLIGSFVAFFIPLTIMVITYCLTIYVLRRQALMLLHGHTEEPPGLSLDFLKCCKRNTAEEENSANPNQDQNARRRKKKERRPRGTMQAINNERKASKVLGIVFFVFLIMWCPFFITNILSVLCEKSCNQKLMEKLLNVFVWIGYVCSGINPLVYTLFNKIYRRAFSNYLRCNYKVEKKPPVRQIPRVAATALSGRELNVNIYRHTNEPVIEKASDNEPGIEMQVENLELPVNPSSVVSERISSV
# [1] = target: T2, human 5-hydroxytryptamine-2C (h5-HT2C) receptor (Homo sapiens, UniProt P28335); experiment: [125I]DOI binding to membranes of CHO cells expressing the human 5-HT2C receptor; settings: [125I]DOI radioligand, CHO cell membranes, room temperature 60 min; read-out: 5-HT2C Affinity Ki
# T2 construct: expressed in transfected cells; host or cells: CHO (Chinese Hamster Ovary) cells; membranes
# T2 sequence (P28335 33-458): T1 sequence (P28335 33-458)
# [2] = percentage of the response observed with a maximally effective concentration of 5-HT, read-out: 5-HT2C Function Emax (%)
Emax (human 5-HT2C receptor; [2]) [%],EC50 (human 5-HT2C receptor) [nM],Ki [1] [nM],Structure (SMILES),"Emax (human 5-HT2C receptor; read-out: 5-HT2C Function Emax (%), percentage of the response observed with a maximally effective concentration of 5-HT) [%]"
90,2,0.23,"NCC1Cc2cccc(-c3cc(Cl)ccc3Cl)c2O1 (racemic) [Example 163, (±)-{[7-(2,5-dichlorophenyl)-2,3-dihydro-1-benzofuran-2-yl]methyl}amine]",
90,0.2,8,"NCC1Cc2cccc(-c3c(Cl)cc(Cl)cc3Cl)c2O1 (racemic) [Example 166, (±)-{[7-(2,4,6-trichlorophenyl)-2,3-dihydro-1-benzofuran-2-yl]methyl}amine]",
90,21,3.1,"Cc1cc(Cl)ccc1-c1cccc2c1OC(CN)C2 (racemic) [Example 167, (±)-{[7-(4-chloro-2-methylphenyl)-2,3-dihydro-1-benzofuran-2-yl]methyl}amine]",
100,1,2,"Cc1ccc(Cl)cc1-c1cccc2c1OC(CN)C2 (racemic) [Example 168, (±)-{[7-(5-chloro-2-methylphenyl)-2,3-dihydro-1-benzofuran-2-yl]methyl}amine]",
100,50,14,"COc1ccc(Cl)cc1-c1cccc2c1OC(CN)C2 (racemic) [Example 169, (±)-{[7-(5-chloro-2-methoxyphenyl)-2,3-dihydro-1-benzofuran-2-yl]methyl}amine]",
90,14,3.3,"NCC1Cc2cccc(-c3cccnc3)c2O1 (racemic) [Example 170, (±)-[(7-pyridin-3-yl-2,3-dihydro-1-benzofuran-2-yl)methyl]amine]",
80,9,0.48,"COc1ccccc1-c1cc(F)cc2c1OC(CN)C2 (racemic) [Example 195, (±)-{[5-fluoro-7-(2-methoxyphenyl)-2,3-dihydro-1-benzofuran-2-yl]methyl}amine]",
60,903,17,"Cc1cccc(-c2cc(F)cc3c2OC(CN)C3)c1 (racemic) [Example 198, (±)-{[5-fluoro-7-(3-methylphenyl)-2,3-dihydro-1-benzofuran-2-yl]methyl}amine]",
80,416,19,"NCC1Cc2cc(F)cc(-c3ccc(F)cc3)c2O1 (racemic) [Example 199, (±)-{[5-fluoro-7-(4-fluorophenyl)-2,3-dihydro-1-benzofuran-2-yl]methyl}amine]",
80,369,12,"NCC1Cc2cc(F)cc(-c3ccc(Cl)cc3)c2O1 (racemic) [Example 200, (±)-{[5-fluoro-7-(4-chlorophenyl)-2,3-dihydro-1-benzofuran-2-yl]methyl}amine]",
80,396,8,"Cc1ccc(-c2cc(F)cc3c2OC(CN)C3)cc1 (racemic) [Example 201, (±)-{[5-fluoro-7-(4-methylphenyl)-2,3-dihydro-1-benzofuran-2-yl]methyl}amine]",
80,105,11,"COc1ccc(-c2cc(F)cc3c2OC(CN)C3)cc1 (racemic) [Example 202, (±)-{[5-fluoro-7-(4-methoxyphenyl)-2,3-dihydro-1-benzofuran-2-yl]methyl}amine]",
80,187,8.5,"NCC1Cc2cc(F)cc(-c3ccsc3)c2O1 (racemic) [Example 203, (±)-[(5-fluoro-7-thien-3-yl-2,3-dihydro-1-benzofuran-2-yl)methyl]amine]",
90,336,1.3,"NCC1Cc2cc(F)cc(-c3ccoc3)c2O1 (racemic) [Example 204, (±)-{[5-fluoro-7-(3-furyl)-2,3-dihydro-1-benzofuran-2-yl]methyl}amine]",
80,280,3,"NCC1Cc2cc(F)cc(-c3ccccn3)c2O1 (racemic) [Example 205, (±)-[(5-fluoro-7-pyridin-2-yl-2,3-dihydro-1-benzofuran-2-yl)methyl]amine]",
90,4,1.7,"NCC1Cc2cc(F)cc(-c3cccnc3)c2O1 (racemic) [Example 206, (±)-[(5-fluoro-7-pyridin-3-yl-2,3-dihydro-1-benzofuran-2-yl)methyl]amine]",
90,57,2.3,"NCC1Cc2cc(F)cc(-c3ccncc3)c2O1 (racemic) [Example 209, (±)-[(5-fluoro-7-pyridin-4-yl-2,3-dihydro-1-benzofuran-2-yl)methyl]amine]",
70,672,19,"NCC1Cc2cc(F)cc(-c3cccc(Cl)c3Cl)c2O1 (racemic) [Example 211, (±)-{[7-(2,3-dichlorophenyl)-5-fluoro-2,3-dihydro-1-benzofuran-2-yl]methyl}amine]",
90,11,2.4,"COc1cccc(-c2cc(F)cc3c2OC(CN)C3)c1OC (racemic) [Example 212, (±)-{[7-(2,3-dimethoxyphenyl)-5-fluoro-2,3-dihydro-1-benzofuran-2-yl]methyl}amine]",
80,80,5,"NCC1Cc2cc(F)cc(-c3ccc(F)cc3F)c2O1 (racemic) [Example 215, (±)-{[7-(2,4-difluorophenyl)-5-fluoro-2,3-dihydro-1-benzofuran-2-yl]methyl}amine]",
90,79,7,"COc1ccc(-c2cc(F)cc3c2OC(CN)C3)c(OC)c1 (racemic) [Example 219, (±)-{[7-(2,4-dimethoxyphenyl)-5-fluoro-2,3-dihydro-1-benzofuran-2-yl]methyl}amine]",
90,30,8,"NCC1Cc2cc(F)cc(-c3cc(F)ccc3F)c2O1 (racemic) [Example 220, (±)-{[7-(2,5-difluorophenyl)-5-fluoro-2,3-dihydro-1-benzofuran-2-yl]methyl}amine]",
90,2,1.4,"NCC1Cc2cc(F)cc(-c3cc(Cl)ccc3Cl)c2O1 (racemic) [Example 221, (±)-{[7-(2,5-dichlorophenyl)-5-fluoro-2,3-dihydro-1-benzofuran-2-yl]methyl}amine]",
80,120,18,"Cc1ccc(C)c(-c2cc(F)cc3c2OC(CN)C3)c1 (racemic) [Example 222, (±)-{[7-(2,5-dimethylphenyl)-5-fluoro-2,3-dihydro-1-benzofuran-2-yl]methyl}amine]",
80,30,10,"COc1ccc(OC)c(-c2cc(F)cc3c2OC(CN)C3)c1 (racemic) [Example 223, (±)-{[7-(2,5-dimethoxyphenyl)-5-fluoro-2,3-dihydro-1-benzofuran-2-yl]methyl}amine]",

Structure (SMILES),Emax (human 5-HT2C receptor; [2]) [%],EC50 (human 5-HT2C receptor) [nM],Ki [1] [nM],"Emax (human 5-HT2C receptor; read-out: 5-HT2C Function Emax (%), percentage of the response observed with a maximally effective concentration of 5-HT) [%]"
"NCC1Cc2cc(F)cc(-c3ccc(Cl)cc3Cl)c2O1 (racemic) [Example 216, (±)-{[7-(2,4-dichlorophenyl)-5-fluoro-2,3-dihydro-1-benzofuran-2-yl]methyl}amine]",,0.2,0.7,100
